Values joined by “and” are separate entries in the source; they are usually repeats but may differ in a detail not shown here. Equal values may be shown once. Read-outs that look alike come from different tables or passages of the source.
Legend:
[1] = test system: A. baumanii ATCC 19606; experiment: Antibacterial activity (MIC, broth dilution); type: cell-based, Acinetobacter baumanii; conditions: CLSI, in µg/mL
Summary of the method: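 MIC determined by broth dilution following CLSI standards, using A. baumanii ATCC 19606.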

[2] = test system: cell wall synthesis in E. faecalis EF1509; experiment: Macromolecular synthesis assay: cell wall synthesis; type: cell-based; conditions: Enterococcus faecalis; E. faecalis EF1509, [14C] N-acetyl-glucosamine incorporation; read-out: IC50 inhibition of cell wall synthesis
Protocol: The effect of compounds on the macromolecular synthetic pathways of E. faecalis EF1509 were measured as follows: Cells were grown at 35°C overnight on Tryptic Soy Agar Broth (Remel, Lenexa, KS), and growth from the plate was used to inoculate 15 ml of Mueller Hinton Broth. The culture was grown to early exponential growth phase (OD600 = 0.2 to 0.3) while incubating in a shaker at 35°C and 150 rpm. For each macromolecular assay, the test agents were added at either 0, 0.25, 0.5, 1, 2, or 4, -fold their respective MIC values for E. faecalis EF1509. […] For cell wall synthesis, bacterial cells in early exponential growth phase were transferred to M9 minimal medium and added to 1.5 ml eppendorf tubes (100 μl/tube) containing various concentrations of test compound or control antibiotics (2.5 μl) at 40X the final concentration in 100% DMSO as described above. Following a 5 min incubation at 37°C, [^14C] N-acetyl-glucosamine (0.4 μCi/reaction) was added to each tube and incubated for 45 min in a 37°C heating block. Reactions were stopped through the addition of 100 μl of 8% SDS to each tube. […] After washing three times with 5 ml of 0.1% SDS, the filters were rinsed two times with 5 ml of deionized water, allowed to dry, and then counted using a Beckman LS3801 liquid scintillation counter.

[3] = design: method as in PMID 25987836; conditions: IV, parent compound for comparison; cited from earlier work
[4] = Liver microsome stability; type: in vitro ADME; conditions: human liver microsomes, pH 7.4, 1h 37 °C
Protocol: The in vitro microsome stability assay was performed using human liver microsomes and a Biomek FXP liquid handling workstation to deliver reagents to a 96 deep well plate on a shaking peltier with temperature controls. Human liver microsomes were purchased from Corning®. The test compound was incubated in an aqueous reaction mixture (200 ul total volume) consisting of human liver microsomes (150 mixed donor pool) and NADPH Regenerating System Solutions A and B (Corning®) in the presence of 100 mM potassium phosphate buffer (pH 7.4). The NADPH solution A comprises nicotinamide adenine dinucleotide phosphate (NADP+) and glucose 6-phosphate and solution B contains glucose-6-phosphate dehydrogenase. Solutions A and B were combined prior to adding to the reaction plate to generate a supply of NADPH. The NADPH was added last to simultaneously initiate the reactions. The final concentration of the test compound was 10 uM and the microsomal protein concentration was 0.5 mg/ml. After incubation at 37°C, the reaction was terminated at 0, 5, 10, 20, 30, 40, 50 and 60 minutes, respectively, by the addition of 600 uL of acetonitrile. Three replicates were run for each time point. The quenched reaction plate was centrifuged at 4500 rpm for 10 minutes. The supernatant was diluted 1:2 in 30% Methanol in water for LC/MS/MS analyses to monitor substrate depletion. Water was substituted for NADPH for the zero time-point samples. A control plate, without NADPH cofactor, was completed on the same day, using the same conditions.
The half-life (t1/2) was obtained using the equation below: t1/2=−0.693/slope
Where slope is the slope of the line formed by ln(% remaining test compound) vs. time. The in vitro intrinsic clearance (CLint) value was calculated using equation: CLint=(0.693/t1/2)(incubation volume(ul)/total microsomal protein(mg))

[5] = biological target: T1, CYP2C19 (Homo sapiens, UniProt P33261); experiment: Cytochrome P450 inhibition; type: in vitro ADME; conditions: recombinant human CYP2C19 (Supersomes), pH 7.4, probe CEC, IC50 fluorescence, substrate CEC, read-out: P450 enzyme inhibition IC50 CYP2C19/CEC
T1 construct: purchased Corning
Protocol: (§1) The final concentration of each substrate was 1 μM.
(§2) Computation of IC50 values:The background of no-enzyme samples to determine the background value were averaged. The positive control or full-reaction samples to determine the signal value were averaged.
(§3) The percent activity of each sample was calculated as follows:
(§4) [(Test compound metabolite–average background)/(average signal–average background)] X 100 = % activity
(§5) The the IC50 value using non-linear regression was calculated.

[6] = biological target: T2, CYP2D6 (Homo sapiens, UniProt P10635); experiment: Cytochrome P450 inhibition; type: in vitro ADME; conditions: recombinant human CYP2D6 (Supersomes), pH 7.4, probe AMMC, IC50 fluorescence, substrate AMMC, read-out: P450 enzyme inhibition IC50 CYP2D6/ AMMC
T2 construct: purchased Corning
Protocol: as §1, §2, §3, §4, §5

[7] = biological target: T3, CYP3A4 (Homo sapiens, UniProt P08684); experiment: Cytochrome P450 inhibition; type: in vitro ADME; conditions: IC50 fluorescence
T3 construct: purchased Corning
Protocol: as §1, §2, §3, §4, §5

[8] = Plasma stability (50% serum, LC/MS/MS); type: in vitro ADME
Protocol: Samples were taken after 2 min, 5min, 15min, 30min, 1h, 2h and 19h. Stability of compound was quantified by LC/MS/MS. Experiments were carried out by Pharmaron, Inc., (Beijing, China).

T3 sequence (P08684 whole entry): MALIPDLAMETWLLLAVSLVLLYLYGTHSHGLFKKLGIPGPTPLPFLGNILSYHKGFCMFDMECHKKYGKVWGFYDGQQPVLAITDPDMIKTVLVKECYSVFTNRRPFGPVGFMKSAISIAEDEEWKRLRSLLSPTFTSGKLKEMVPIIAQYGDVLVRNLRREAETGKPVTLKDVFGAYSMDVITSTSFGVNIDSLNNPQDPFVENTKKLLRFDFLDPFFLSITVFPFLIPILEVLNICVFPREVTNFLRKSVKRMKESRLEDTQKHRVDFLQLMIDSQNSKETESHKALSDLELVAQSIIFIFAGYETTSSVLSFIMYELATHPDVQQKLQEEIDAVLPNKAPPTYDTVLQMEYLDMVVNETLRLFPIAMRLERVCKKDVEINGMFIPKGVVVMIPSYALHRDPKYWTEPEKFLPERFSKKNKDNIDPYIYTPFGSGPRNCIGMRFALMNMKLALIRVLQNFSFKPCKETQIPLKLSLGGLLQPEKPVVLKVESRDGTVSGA
T1 sequence (P33261 whole entry): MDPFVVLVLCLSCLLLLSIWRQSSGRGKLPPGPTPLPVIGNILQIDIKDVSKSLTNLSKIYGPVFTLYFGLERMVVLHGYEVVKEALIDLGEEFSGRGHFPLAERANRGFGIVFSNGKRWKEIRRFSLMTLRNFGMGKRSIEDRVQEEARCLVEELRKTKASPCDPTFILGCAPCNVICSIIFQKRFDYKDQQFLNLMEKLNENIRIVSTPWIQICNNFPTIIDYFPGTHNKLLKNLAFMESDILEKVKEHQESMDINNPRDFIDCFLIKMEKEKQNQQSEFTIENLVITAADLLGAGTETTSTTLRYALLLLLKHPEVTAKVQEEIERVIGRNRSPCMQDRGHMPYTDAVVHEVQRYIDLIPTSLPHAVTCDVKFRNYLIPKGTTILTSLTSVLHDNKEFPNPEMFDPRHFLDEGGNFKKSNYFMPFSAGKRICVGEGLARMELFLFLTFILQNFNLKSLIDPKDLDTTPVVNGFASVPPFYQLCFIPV
T2 sequence (P10635 whole entry): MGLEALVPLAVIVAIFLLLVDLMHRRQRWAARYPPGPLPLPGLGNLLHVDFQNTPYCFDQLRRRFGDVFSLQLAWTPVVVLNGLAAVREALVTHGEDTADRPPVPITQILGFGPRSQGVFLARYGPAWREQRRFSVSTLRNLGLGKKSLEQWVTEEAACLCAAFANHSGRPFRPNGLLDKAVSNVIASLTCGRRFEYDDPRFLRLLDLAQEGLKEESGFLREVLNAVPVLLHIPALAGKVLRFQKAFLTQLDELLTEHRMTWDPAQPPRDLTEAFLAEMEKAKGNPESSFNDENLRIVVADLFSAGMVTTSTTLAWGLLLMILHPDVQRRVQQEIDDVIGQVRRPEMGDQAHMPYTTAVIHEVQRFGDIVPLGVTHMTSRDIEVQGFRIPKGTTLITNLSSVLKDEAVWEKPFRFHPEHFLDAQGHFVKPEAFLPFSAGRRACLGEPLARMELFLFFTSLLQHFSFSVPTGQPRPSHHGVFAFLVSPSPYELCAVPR

| Structure (SMILES) | Antibacterial activity (MIC) A. baumanii ATCC 19606 [1] | IC50 [2] [µg/mL] | AUCInf [3] [ng·h/mL] | AUClast [3] [ng·h/mL] | Cl_obs [3] [mL/min/kg] | Cmax [3] [ng/mL] | T1/2 [3] | Vss_obs [3] [L/kg] | half-life at 10 uM ([4]; read-out: Liver microsome stability Half-life) [min] | microsomal CLint at 10 uM ([4]; read-out: Liver microsome stability clearance) [µL/min/mg] | IC50 [5] [µM] | IC50 [6] [µM] | IC50 ([7]; substrate BFC, read-out: P450 enzyme inhibition IC50 CYP3A4/ BFC) [µM] | IC50 ([7]; human, recombinant human CYP3A4 (Supersomes), pH 7.4, probe DBF, substrate DBF, read-out: P450 enzyme inhibition IC50 CYP3A4/ DBF) [µM] | Stability in serum ([8]; after 2 hours) | Compound remaining in serum ([8]; after 19h, 10 μg/ml) [%] |
| --- | --- | --- | --- | --- | --- | --- | --- | --- | --- | --- | --- | --- | --- | --- | --- | --- |
| CN1/C(=C/C=C/c2cc(-c3ccccc3)cc(-c3ccccc3)[o+]2)C(C)(C)c2ccccc21 [BAS-00127538, (1-Methyl-2,4-diphenyl-6-((1E,3E)-3-(1,3,3-trimethylindolin-2-ylidene)prop-1-en-1-yl)pyryl-1-ium) tetrafluoroborate, reference compound] | 4 | 1.1 | 27.9 | 26.9 | 711 | 101 | 13.2 min and 13.6 min | 12.2 | – | – | – | – | – | – | – | – |
| CN(C)c1ccc(/C=C/c2cc(-c3ccc(Br)cc3)cc(-c3ccc(Br)cc3)[o+]2)cc1 [6jc48-1] | >=64 | 3.8 | – | – | – | – | – | – | > 60 | < 23 | > 10 | > 10 | 1.3 | > 10 | fully stable after 2 hours in serum | 46 |
